Experiment [1] relates to retinal ganglion cells (RGCs). Put plainly: High-content neurite outgrowth screen of purified retinal ganglion cell cultures (number of outgrowth neurons). Type of experiment: cell-based, rat. The settings on record: for activity compared with TPAO / activity of compounds similar to TPAO: 4 different concentrations; for number of outgrowth neurons: 50 ng/ml, 120 hours, versus cultures grown in medium only. The procedure:
Retinal ganglion cell harvest and immunopurification are performed as described above and in the specific Examples, below. A concentration range of neuroprotective compounds to be validated is prepared and added to test wells (e.g., to achieve final concentrations of 3 μM, 10 μM, 15 μM, 30 μM, 60 μM, 90 μM, 120 μM, and 150 μM in 1% DMSO in each well). For a neuroprotective compound obtained from the […]™ library, for example, 1 mg of desiccated compound can be resuspended in 22.2 μl of DMSO to a final stock solution of 150 mM. […] Afterwards, the solution can be stored in the dark at −20° C.
Neuroprotective compounds and positive control factors are added to the appropriate wells of a 96-well plate (e.g., 25 μl to each well in a 5× concentration prior to the seeding cells in a volume of 100 μl giving a final volume of 125 μl). Cells are incubated, stained, and imaged as described above and in the specific Examples, below. Experiments preferably are performed in duplicate. Following normalization to a negative control (e.g., a well containing medium only), a dose response curve can be plotted. Statistical software (e.g., from SPSS) can be used to perform curve fitting and analysis.
An efficient two-step immunomagnetic purification of a mixed cell population obtained from postnatal rat retina is used to provide a highly enriched population of RGCs for culture. The first step is an immunomagnetic depletion of […] non-RCGS using a cd11b/c. The second step is an immunomagnetic selection of RGCs with an antibody that binds Thy1 on the RGC cell surface. The cells are then released from the magnetic beads by digesting the DNA linker with a low concentration of DNase. Cells are grown on poly-d-lysine/laminin coated plastic plates in a basic medium (Neurobasal media, B27 supplement, glutamine, and penicillin/streptomycin).
(§1) The purified Thy-1 immunoreactive cells are resuspended in growth media (Neurobasal media, B27 supplement, 2 mM glutamine, and 1 U/ml penicillin/streptomycin) and quantified using a hematocytometer. Cells are seeded in 100 μl at a density of 4000 cells/well (150/mm^2) in 96 well culture dishes (Falcon) that had been sequentially coated with poly-d-lysine (0.01 mg/ml) and laminin (0.01 μg/μl) (Sigma). Each well either contains 25 μl of media alone or 5× drug or 5×BDNF and forskolin. Final concentrations are: DMSO (1%), drug (20 to 30 μM), BDNF (50 ng/ml) and forskolin (10 μM). Culture dishes are placed in an incubator maintained at 37° C. and 5% CO2. One hour after seeding, a post-seeding viability is determined by staining with Hoechst and TOTO3 and calculating the percent of live cells.
(§2) After 120 hours of incubation, cells are stained with 5 μM Hoechst and 10 μM Calcein AM (Molecular Probes). Calcein AM (Calcein acetoxymethyl), the dye that is used to stain living cells and their neurites, is a green dye that is permeant to living cells. After internalization by cells, the nonfluorescent calcein AM is converted to fluorescent calcein upon hydrolysis of the acetoymethyl ester by intracellular esterases. Cleavage of the AM group occurs spontaneously when calcein AM is suspended in aqueous solution resulting in a significant increase in background fluorescence over time. TOTO3, which stains the nuclei of dead cells, can be used to determine viability.
Fifteen stereotypic field are autofocus imaged on a Cellomics […]® High Content Scan Reader using epifluorescence and filter sets corresponding to each of the two dyes. This instrument employs a Zeiss fluorescence microscope, a temperature and CO2 live cell chamber, an integrated liquid handling system, and image analysis software that permits staining, imaging, and analysis of the cells and their neurites in approximately 5 hours per plate.

The test system of experiment [2] is retinal ganglion cells (RGCs). Put plainly: RGCs on glass coverslips in 24-well plates, neurofilament immunostaining, counting neurons with neurite extension. It counts as cell-based, rat. The settings on record: neurofilament antibody. Here is the method: FIG. 4. […] Immunopurified postnatal rat RGCs were cultured in increasing concentrations of TPAO in the presence of 1% DMSO. […] The effect of TPAO is synergistic with both BDNF and forskolin.
Although the developed technique for performing cell culture is effective and objective, it is desirable to assess the outcome of a screen using a different technique. Thus, for example, the technique of culturing cells on poly d-lysine and laminin coated coverslips in 24 well culture dishes under various culture conditions can be followed by immunostaining with anti-neurofilament antibody and quantitative analysis.
After determination of the dose response relationship and concentration at which the neuroprotective compound has it is maximal effect in culture, cells can be cultured on poly d-lysine and laminin coated cover slips (BD Pharmingen) in the presence of the neuroprotective compound, with appropriate positive and negative controls. […]
For example, in one embodiment cells are fixed with 4% paraformaldehyde, washed with PBS, blocked with PBS/0.1% Triton X/20% goat serum, and incubated overnight in PBS/0.1% Triton X/20% goat serum containing 1:100 dilution of rabbit anti-neurofilament (68 kd) antibody (Chemicon). […] The number of cells with neurite outgrowth at 3 different radii is determined (Scholl analysis) and compared using Student t test.

For experiment [3], the system named is retinal ganglion cells (RGCs). Description: Overall cell survival of cultured RGCs after 120 hours. It counts as cell-based, rat. The note with it: 50 ng/ml. The procedure:
as §1, §2
Images are processed using the Cellomics Extended Neurite Outgrowth software program. In the initial image processing, cells are identified on the Hoechst channel and selected based on size such that of clusters of cells may be excluded from analysis. In addition, each nuclei on the Hoechst channel is matched to a calcein-stained cell and counted as a “valid neuron” (i.e., a live cell). Neurons can be further selected based on size in the calcein channel. The Extended Neurite Outgrowth program is used to trace neurites extending from these selected neurons. The mean neurite length, mean neurite count, mean number of branch points, and mean number of crosspoints are determined. In addition, the percent of cells with neurite features (e.g., neurite length, neurite count) surpassing a threshold of one standard deviation above the mean neurite characteristic of a set of reference wells containing cells and growth medium without additional growth factors is determined. The “neurite outgrowth” measurement is based on the combined mean neurite length and mean neurite count.

The test system of experiment [4] is RGCs. The settings on record: peptide trophic factors; Meyer-Franke et al. 1995; cited from earlier work.

“Also recorded” adds a separate entry of the source.

`CC1(C)CC(=NOC(=O)c2ccccc2)CC(C)(C)N1` [2,2,6,6-tetramethyl-4-piperidinone O-benzoyloxime]: in experiment [1], the “activity compared with TPAO” value is given as “less than that of TPAO” and the “activity of compounds similar to TPAO” value was “showed activity”.

On to `CC1(C)CC(=NNC(N)=S)CC(C)(C)N1` [2,2,6,6-tetramethyl-4-piperidinone thiosemicarbazone], for which, in experiment [1], the “activity compared with TPAO” value is on record as “less than that of TPAO” and the “activity of compounds similar to TPAO” value is recorded as “showed activity”.

On to `CC(=O)ON=C1CC(C)(C)NC(C)(C)C1` [TPAO, 2,2,6,6-tetramethyl-4-piperidinone O-acetyloxime], for which, in experiment [1], the “effect in combination with BDNF and forskolin” value is “synergistic”. The “dose dependence of survival/growth of neurite-bearing RGCs” value in experiment [1] (dose response 3 μM to 150 μM) is reported as “dose-dependent manner”. In addition, the “activity if the medium was changed at 24 hours” value in experiment [1] (medium change at 24 hours) is recorded as “lost”. For the same molecule, in experiment [2], the “effect on neurons with a neurite extension greater than one cell body in diameter” value is reported as “demonstrated”.

As for “BDNF: peptide trophic factor known to promote RGC survival; positive control”, the “number of outgrowth neurons” value in experiment [1] is listed as “significantly increased; also recorded: Statistically significant increases”. Moreover, the “overall cell survival (number of surviving cells)” value (“overall cell survival” for short) in experiment [3] is “slight increase in the number of surviving cells that did not reach statistical significance”. In experiment [4], the “concentration of maximal effect on RGCs” value was 10 ng/mL.

“GDF8: BMP-related myostatin/Gdf8 (Growth and differentiation factor 8)”: in experiment [1], the “number of outgrowth neurons” value is reported as “significantly increased; also recorded: Statistically significant increases”. Further, the “overall cell survival” value in experiment [3] was “slight increase in the number of surviving cells that did not reach statistical significance”.

As for “TGFα: growth factor tested at 50 ng/ml on cultured RGCs”, in experiment [1], the “number of outgrowth neurons” value was “No significant change”. Also, the “overall cell survival” value in experiment [3] is “no effect”.

With “TGFβ1: growth factor tested at 50 ng/ml on cultured RGCs”, in experiment [1], the “number of outgrowth neurons” value was “No significant change”. Besides, the “overall cell survival” value in experiment [3] is recorded as “no effect”.

B1: BMP13: bone morphogenetic protein, member of the TGFβ superfamily (protein, UniProt Q6KF10 336-455, looked up)
Growth/differentiation factor …: TAFASRHGKRHGKKSRLRCSKKPLHVNFKELGWDDWIIAPLEYEAYHCEGVCDFPLRSHLEPTNHAIIQTLMNSMDPGSTPPSCCVPTKLTPISILYIDAGNNVVYKQYEDMVVESCGCR
As for B1, the “number of outgrowth neurons” value in experiment [1] is “significantly increased; also recorded: Statistically significant increases”. Moreover, the “overall cell survival” value in experiment [3] is given as “no effect”.

B2: CNTF: peptide trophic factor (protein, UniProt P26441 1-200, looked up)
Ciliary neurotrophic factor: MAFTEHSPLTPHRRDLCSRSIWLARKIRSDLTALTESYVKHQGLNKNINLDSADGMPVASTDQWSELTEAERLQENLQAYRTFHVLLARLLEDQQVHFTPTEGDFHQAIHTLLLQVAAFAYQIEELMILLEYKIPRNEADGMPINVGDGGLFEKKLWGLKVLQELSQWTVRSIHDLRFISSHQTGIPARGSHYIANNKKM
As to B2, in experiment [4], the “concentration of maximal effect on RGCs” value is 0.1 ng/mL.

B3: TGFβ2: growth factor tested at 50 ng/ml on cultured RGCs (protein, UniProt P61812 303-414, looked up)
Transforming growth factor …: ALDAAYCFRNVQDNCCLRPLYIDFKRDLGWKWIHEPKGYNANFCAGACPYLWSSDTQHSRVLSLYNTINPEASASPCCVSQDLEPLTILYYIGKTPKIEQLSNMIVKSCKCS
With B3, the “number of outgrowth neurons” value in experiment [1] was “No significant change”. Moreover, the “overall cell survival” value in experiment [3] is “no effect”.

The record behind these values is US9771331B2, “Methods of identifying neuroprotective compounds for retinal ganglion cells” (THE JOHNS HOPKINS UNIVERSITY, priority 2005, dated 2017).
